In patent US20230295234A1, “ANTIMICROBIAL PEPTIDOMIMETICS” (SPEXIS AG, priority 2020, published 2023):
Read-outs that look alike come from different tables or passages of the source. Bridge positions count the residues as written; N and C are the ends. Square brackets hold non-standard residues; d marks the D form. Peptide text beside a SMILES is read from it. * marks the point of attachment. Val(Nα-amidino) = CC(C)[C@H](NC(=N)N)C(=O)*; Pro(4R-NH2) = N[C@H]1CN[C@H](C(=O)O)C1; Pen = CC(C)(S)[C@H](N)C(=O)O; dDab = NCC[C@@H](N)C(=O)O; Dab = NCC[C@H](N)C(=O)O

Tests used:
[1] = test system: Escherichia coli ATCC 25922
Procedure, shortened: (§1)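 Activity is measured against peptides serially diluted two-fold in water with 0.002% final Polysorbate 80. The cells are in cation-adjusted MHII broth at roughly 5×10^5 CFU/mL, prepared from a 0.5 McFarland suspension in 0.85% NaCl.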

[2] = test system: Escherichia coli MCR-1 Af 45; settings: Mueller-Hinton broth II, 18-20 hours at 35° C.
Procedure, shortened: as §1

[3] = test system: Klebsiella pneumoniae SSI3010
Procedure, shortened: as §1

[4] = test system: human red blood cells (hRBC); assay: Hemolysis of human red blood cells; format: cell-based
Procedure, shortened: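 PBS-washed human red blood cells (20% v/v) were incubated with peptide at 200 μg/mL for 1 h at 37 °C with shaking. Supernatant OD was read at 540 nm after 8-fold dilution. Hemolysis is expressed as percent of the water control.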

[5] = Mueller-Hinton broth II, 18-20 hours at 35° C.

SMILES	Escherichia coli ATCC 25922 MIC ([1]; ATCC 25922) [µg/mL]	Escherichia coli MCR-1 Af 45 MIC [2] [µg/mL]	Klebsiella pneumoniae SSI3010 MIC ([3]; SSI3010) [µg/mL]	Hemolysis at 0.2 g/L ([4]; red cells of human, 1 h) [%]	Escherichia coli ATCC 25922 MIC [1, 5] [µg/mL]	Klebsiella pneumoniae SSI3010 MIC [3, 5] [µg/mL]	Hemolysis at 0.2 g/L ([4]; 20% hRBC, 1 h at 37° C.) [%]
CC[C@H](C)[C@H](NC(=O)[C@@H]1C[C@@H](O)CN1C(=O)[C@@H](NC(=N)N)C(C)C)C(=O)N[C@H](C(=O)N[C@@H](Cc1ccc(O)cc1)C(=O)N[C@@H]1C(=O)N[C@@H](CC(N)=O)C(=O)N[C@@H](CCCNC(=N)N)C(=O)N[C@@H](CCN)C(=O)N[C@@H]([C@@H](C)O)C(=O)N[C@H](CCN)C(=O)N[C@@H](CCCCN)C(=O)N[C@H](C(=O)N[C@@H](CCN)C(=O)N[C@@H](CCCNC(=N)N)C(=O)N[C@@H](Cc2ccc(O)cc2)C(=O)O)CSSC1(C)C)[C@@H](C)O [Example 188] (HELM PEPTIDE1{[CC(C)[C@H](NC(=N)N)C(=O)[*:2]].[Hyp].I.T.Y.[Pen].N.R.[Dab].T.[NCC[C@@H](N[*:1])C(=O)[*:2]].K.C.[Dab].R.Y}$PEPTIDE1,PEPTIDE1,6:R3-13:R3$$$V2.0)	0.125	≤0.125	0.25	0			
CC[C@H](C)[C@H](NC(=O)[C@@H](NC(=O)[C@@H]1C[C@@H](O)CN1C(=O)[C@@H](NC(=N)N)C(C)C)[C@@H](C)CC)C(=O)N[C@@H](Cc1ccc(O)cc1)C(=O)N[C@@H]1C(=O)N[C@@H](CC(N)=O)C(=O)N[C@@H](CCCNC(=N)N)C(=O)N[C@@H](CCN)C(=O)N[C@@H]([C@@H](C)O)C(=O)N[C@H](CCN)C(=O)N[C@@H](CCCCN)C(=O)N[C@H](C(=O)N[C@@H](CCN)C(=O)N[C@@H](CCCNC(=N)N)C(=O)N[C@@H](Cc2ccc(O)cc2)C(=O)O)CSSC1(C)C [Example 189] (HELM PEPTIDE1{[CC(C)[C@H](NC(=N)N)C(=O)[*:2]].[Hyp].I.I.Y.[Pen].N.R.[Dab].T.[NCC[C@@H](N[*:1])C(=O)[*:2]].K.C.[Dab].R.Y}$PEPTIDE1,PEPTIDE1,6:R3-13:R3$$$V2.0)		0.03125			0.03125	0.0625	0
CC[C@H](C)[C@H](NC(=O)[C@@H]1C[C@@H](N)CN1C(=O)[C@@H](NC(=N)N)C(C)C)C(=O)N[C@H](C(=O)N[C@@H](Cc1ccc(O)cc1)C(=O)N[C@@H]1C(=O)N[C@@H](CC(N)=O)C(=O)N[C@@H](CCCNC(=N)N)C(=O)N[C@@H](CCN)C(=O)N[C@@H]([C@@H](C)O)C(=O)N[C@H](CCN)C(=O)N[C@@H](CCCCN)C(=O)N[C@H](C(=O)N[C@@H](CCN)C(=O)N[C@@H](CCCNC(=N)N)C(=O)N[C@@H](Cc2ccc(O)cc2)C(=O)O)CSSC1(C)C)[C@@H](C)O [Example 190] ({Val(Nα-amidino)}-[Pro(4R-NH2)]ITY[Pen]NR[Dab]T[dDab]KC[Dab]RY-OH; disulfide 5-12)	0.0625	0.0625	0.125	0			
CC[C@H](C)[C@H](NC(=O)[C@@H](NC(=O)[C@@H]1C[C@@H](N)CN1C(=O)[C@@H](NC(=N)N)C(C)C)[C@@H](C)CC)C(=O)N[C@@H](Cc1ccc(O)cc1)C(=O)N[C@@H]1C(=O)N[C@@H](CC(N)=O)C(=O)N[C@@H](CCCNC(=N)N)C(=O)N[C@@H](CCN)C(=O)N[C@@H]([C@@H](C)O)C(=O)N[C@H](CCN)C(=O)N[C@@H](CCCCN)C(=O)N[C@H](C(=O)N[C@@H](CCN)C(=O)N[C@@H](CCCNC(=N)N)C(=O)N[C@@H](Cc2ccc(O)cc2)C(=O)O)CSSC1(C)C [Example 191] ({Val(Nα-amidino)}-[Pro(4R-NH2)]IIY[Pen]NR[Dab]T[dDab]KC[Dab]RY-OH; disulfide 5-12)	0.0625	0.0625	0.0625	0			
CC[C@H](C)[C@H](NC(=O)[C@@H]1C[C@@H](O)CN1C(=O)[C@@H](NC(=N)N)C(C)C)C(=O)N[C@@H](Cc1ccc(O)cc1)C(=O)N[C@@H](Cc1ccc(O)cc1)C(=O)N[C@@H]1C(=O)N[C@@H](CC(N)=O)C(=O)N[C@@H](CCCNC(=N)N)C(=O)N[C@@H](CCN)C(=O)N[C@@H]([C@@H](C)O)C(=O)N[C@H](CCN)C(=O)N[C@@H](CCCCN)C(=O)N[C@H](C(=O)N[C@@H](CCC(N)=O)C(=O)N[C@@H](CCCNC(=N)N)C(=O)N[C@@H](Cc2ccc(O)cc2)C(=O)O)CSSC1(C)C [Example 192] (HELM PEPTIDE1{[CC(C)[C@H](NC(=N)N)C(=O)[*:2]].[Hyp].I.Y.Y.[Pen].N.R.[Dab].T.[NCC[C@@H](N[*:1])C(=O)[*:2]].K.C.Q.R.Y}$PEPTIDE1,PEPTIDE1,6:R3-13:R3$$$V2.0)	0.25	0.25	0.25	0			
CC[C@H](C)[C@H](NC(=O)[C@@H]1C[C@@H](O)CN1C(=O)[C@@H](NC(=N)N)C(C)C)C(=O)N[C@H](C(=O)N[C@@H](Cc1ccc(O)cc1)C(=O)N[C@@H]1C(=O)N[C@@H](CCC(=O)O)C(=O)N[C@@H](CCCNC(=N)N)C(=O)N[C@@H](CCN)C(=O)N[C@@H]([C@@H](C)O)C(=O)N[C@H](CCN)C(=O)N[C@@H](CCCCN)C(=O)N[C@H](C(=O)N[C@@H](CCN)C(=O)N[C@@H](CCCNC(=N)N)C(=O)N[C@@H](Cc2ccc(O)cc2)C(=O)O)CSSC1(C)C)[C@@H](C)O [Example 193] (HELM PEPTIDE1{[CC(C)[C@H](NC(=N)N)C(=O)[*:2]].[Hyp].I.T.Y.[Pen].E.R.[Dab].T.[NCC[C@@H](N[*:1])C(=O)[*:2]].K.C.[Dab].R.Y}$PEPTIDE1,PEPTIDE1,6:R3-13:R3$$$V2.0)	0.25	0.25	0.5	0			
CC[C@H](C)[C@H](NC(=O)[C@@H]1C[C@@H](O)CN1C(=O)[C@@H](NC(=N)N)C(C)C)C(=O)N[C@H](C(=O)N[C@@H](Cc1ccc(O)cc1)C(=O)N[C@@H]1C(=O)N[C@@H](Cc2c[nH]cn2)C(=O)N[C@@H](CCCNC(=N)N)C(=O)N[C@@H](CCN)C(=O)N[C@@H]([C@@H](C)O)C(=O)N[C@H](CCN)C(=O)N[C@@H](CCCCN)C(=O)N[C@H](C(=O)N[C@@H](CCN)C(=O)N[C@@H](CCCNC(=N)N)C(=O)N[C@@H](Cc2ccc(O)cc2)C(=O)O)CSSC1(C)C)[C@@H](C)O [Example 194] (HELM PEPTIDE1{[CC(C)[C@H](NC(=N)N)C(=O)[*:2]].[Hyp].I.T.Y.[Pen].H.R.[Dab].T.[NCC[C@@H](N[*:1])C(=O)[*:2]].K.C.[Dab].R.Y}$PEPTIDE1,PEPTIDE1,6:R3-13:R3$$$V2.0)	0.25	0.125	0.25	0			
CC[C@H](C)[C@H](NC(=O)[C@@H]1C[C@@H](O)CN1C(=O)[C@@H](NC(=N)N)C(C)C)C(=O)N[C@H](C(=O)N[C@@H](Cc1ccc(O)cc1)C(=O)N[C@@H]1C(=O)N[C@@H](CC(N)=O)C(=O)N[C@@H](CCCNC(=N)N)C(=O)N[C@@H](CCN)C(=O)N[C@@H]([C@@H](C)O)C(=O)N[C@H](CCN)C(=O)N[C@@H](CCN)C(=O)N[C@H](C(=O)N[C@@H](CCN)C(=O)N[C@@H](CCCNC(=N)N)C(=O)N[C@@H](Cc2ccc(O)cc2)C(=O)O)CSSC1(C)C)[C@@H](C)O [Example 195] (HELM PEPTIDE1{[CC(C)[C@H](NC(=N)N)C(=O)[*:2]].[Hyp].I.T.Y.[Pen].N.R.[Dab].T.[NCC[C@@H](N[*:1])C(=O)[*:2]].[Dab].C.[Dab].R.Y}$PEPTIDE1,PEPTIDE1,6:R3-13:R3$$$V2.0)	0.25	0.0625	0.125	0			
